Laboratory results as given in US10294202B2, “Pyrrolidinones as herbicides” (FMC Corporation, priority 2013, dated 2019).

Assays:
[1] = system: pigweed; assay: Test A pre-/postemergence herbicide test; assay type: in vivo, Amaranthus retroflexus; details: for Pigweed plant response rating: Preemergence, visual rating on 0 to 100 scale (0 no effect, 100 complete control)
Outline: (§1)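 Both application timings used compounds in a non-phytotoxic solvent plus surfactant. Pre-emergence: soil sprayed directly after seeding into loam/sand. Post-emergence: foliage of 2–10 cm seedlings (1–2 leaves) sprayed. Injury rated ~10 days later, 0–100.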

[2] = system: giant foxtail; assay: Test A pre-/postemergence herbicide test; assay type: in vivo, Setaria faberii; details: for Foxtail, Giant plant response rating: Preemergence, visual rating on 0 to 100 scale (0 no effect, 100 complete control)
Outline: as §1

[3] = system: wheat; assay: Test A pre-/postemergence herbicide test; assay type: in vivo, Triticum aestivum
Outline: as §1

[4] = system: blackgrass; assay: Test A postemergence herbicide test; assay type: in vivo, Alopecurus myosuroides
Outline: (§2)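 Blackgrass and galium grown in pots of loam soil–sand blend, treated postemergence at 2–10 cm height, one- to two-leaf stage. Plants kept in greenhouse ~10 days, then visually rated for injury against untreated controls on a 0–100 scale (0 no effect, 100 complete control).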

[5] = system: ryegrass, Italian; assay: Test A pre-/postemergence herbicide test; assay type: in vivo, Lolium multiflorum; details: for Plant response rating, Ryegrass, Italian: 0 to 100 scale
Outline: as §1

[6] = system: kochia; assay: Test A pre-/postemergence herbicide test; assay type: in vivo, Kochia scoparia; details: for Plant response rating, Kochia: 0 to 100 scale
Outline: as §1

[7] = system: barnyardgrass; assay: Test C flooded paddy test; assay type: in vivo, Echinochloa crus-galli; details: Flood
Outline: (§3)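 Visual injury scored against controls after 13 to 15 days in the greenhouse, using 0 (no effect) to 100 (complete control). Test compounds went straight into paddy water held 3 cm above the soil surface on 2-leaf-stage plants, with that flood depth maintained for the whole test.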

[8] = system: corn; assay: Test A pre-/postemergence herbicide test; assay type: in vivo, Zea mays
Outline: as §1

[9] = system: rice; assay: Test C flooded paddy test; assay type: in vivo, Oryza sativa; details: Flood
Outline: as §3

[10] = system: barnyardgrass; assay: Test A pre-/postemergence herbicide test; assay type: in vivo, Echinochloa crus-galli; details: for Barnyardgrass plant response rating: Preemergence, visual rating on 0 to 100 scale (0 no effect, 100 complete control)
Outline: as §1

[11] = system: ragweed; assay: Test A pre-/postemergence herbicide test; assay type: in vivo, Ambrosia elatior; details: for Plant response rating, Ragweed: 0 to 100 scale
Outline: as §1

[12] = system: galium; assay: Test A postemergence herbicide test; assay type: in vivo, Galium aparine
Outline: as §2

[13] = system: ducksalad; assay: Test C flooded paddy test; assay type: in vivo, Heteranthera limosa; details: Flood
Outline: as §3

[14] = system: sedge, umbrella; assay: Test C flooded paddy test; assay type: in vivo, Cyperus difformis; details: Flood
Outline: as §3

[15] = system: morningglory; assay: Test A pre-/postemergence herbicide test; assay type: in vivo, Ipomoea spp.
Outline: as §1

[16] = system: crabgrass, large; assay: Test A pre-/postemergence herbicide test; assay type: in vivo, Digitaria sanguinalis
Outline: as §1

[17] = system: velvetleaf; assay: Test A pre-/postemergence herbicide test; assay type: in vivo, Abutilon theophrasti
Outline: as §1

[18] = Postemergence, 125 g ai/ha, 0 to 100 scale, 0 no effect, 100 complete control
[19] = preemergence, 500 g ai/ha, 0 to 100 scale
[20] = 125 g ai/ha, 0 to 100 scale, 0 no effect, 100 complete control
[21] = Postemergence, 125 g ai/ha, 0 no effect, 100 complete control
[22] = Preemergence, 125 g ai/ha, visual rating on 0 to 100 scale (0 no effect, 100 complete control)
[23] = 125 g ai/ha, scale of 0 to 100 where 0 is no effect and 100 is complete control, 13 to 15 days
[24] = Postemergence, 500 g ai/ha, 0 to 100 scale (0 no effect, 100 complete control)
[25] = preemergence, 500 g ai/ha, 0 to 100 scale (0 no effect, 100 complete control)

O=C1NCC(c2cccc(C(F)(F)F)c2)C1C(=O)Nc1nncs1 (racemic) [Compound 111]
Plant response rating, Pigweed [1, 18]: 0
Pigweed plant response rating (0 to 100 scale, 0 is no effect, 100 is complete control) ([1]; Postemergence, 500 g ai/ha): 0
Pigweed plant response rating ([1]; 125 g ai/ha): 0
Plant response rating, Pigweed [1, 19]: 0
Plant response rating, Foxtail, Giant [2, 18]: 0
Foxtail, Giant plant response rating (0 to 100 scale, 0 is no effect, 100 is complete control) ([2]; Postemergence, 500 g ai/ha): 0
Foxtail, Giant plant response rating ([2]; 125 g ai/ha): 0
Plant response rating, Foxtail, Giant [2, 19]: 0
Plant response rating, Wheat [3, 18]: 0
Wheat plant response rating (0 to 100 scale, 0 is no effect, 100 is complete control) ([3]; Postemergence, 500 g ai/ha): 0
Plant response rating, Blackgrass [4, 20]: 0
Plant response rating, Blackgrass ([4]; 500 g ai/ha, 0 to 100 scale (0 no effect, 100 complete control)): 0
Plant response rating, Ryegrass, Italian [5, 21]: 0
Ryegrass, Italian plant response rating (0 to 100 scale, 0 is no effect, 100 is complete control) ([5]; Postemergence, 500 g ai/ha): 0
Ryegrass, Italian plant response rating [5, 22]: 0
Plant response rating, Ryegrass, Italian ([5]; preemergence, 500 g ai/ha): 0
Plant response rating, Kochia [6, 21]: 0
Kochia plant response rating (0 to 100 scale, 0 is no effect, 100 is complete control) ([6]; Postemergence, 500 g ai/ha): 0
Kochia plant response rating [6, 22]: 0
Plant response rating, Kochia ([6]; preemergence, 500 g ai/ha): 0
Plant response rating, Barnyardgrass [7, 23]: 0
Plant response rating, Barnyardgrass ([7]; 250 g ai/ha, scale 0 to 100): 0
Plant response rating, Barnyardgrass ([7]; 500 g ai/ha, scale 0 to 100): 0
Plant response rating, Barnyardgrass ([7]; 1000 g ai/ha, scale 0 to 100): 0
Plant response rating, Corn [8, 18]: 0
Plant response rating, Corn [8, 24]: 0
Plant response rating, Rice [9, 23]: 0
Plant response rating, Rice ([9]; 250 g ai/ha, scale 0 to 100): 0
Plant response rating, Rice ([9]; 500 g ai/ha, scale 0 to 100): 0
Plant response rating, Rice ([9]; 1000 g ai/ha, scale 0 to 100): 0
Plant response rating, Barnyardgrass [10, 18]: 0
Plant response rating, Barnyardgrass [10, 24]: 0
Barnyardgrass plant response rating ([10]; 125 g ai/ha): 0
Plant response rating, Barnyardgrass [10, 25]: 0
Plant response rating, Ragweed [11, 21]: 0
Ragweed plant response rating (0 to 100 scale, 0 is no effect, 100 is complete control) ([11]; Postemergence, 500 g ai/ha): 0
Ragweed plant response rating [11, 22]: 0
Plant response rating, Ragweed ([11]; preemergence, 500 g ai/ha): 0
Plant response rating, Galium [12, 20]: 0
Galium plant response rating (0 to 100 scale, 0 is no effect, 100 is complete control) ([12]; 500 g ai/ha): 0
Plant response rating, Ducksalad [13, 23]: 0
Plant response rating, Ducksalad ([13]; 250 g ai/ha, scale 0 to 100): 0
Plant response rating, Ducksalad ([13]; 500 g ai/ha, scale 0 to 100): 30
Plant response rating, Ducksalad ([13]; 1000 g ai/ha, scale 0 to 100): 40
Plant response rating, Sedge, Umbrella [14, 23]: 0
Plant response rating, Sedge, Umbrella ([14]; 250 g ai/ha, scale 0 to 100): 0
Plant response rating, Sedge, Umbrella ([14]; 500 g ai/ha, scale 0 to 100): 0
Plant response rating, Sedge, Umbrella ([14]; 1000 g ai/ha, scale 0 to 100): 0

O=C1NC[C@@H](c2ccc(F)c(F)c2)[C@@H]1C(=O)Nc1ccccc1F [Compound 102]
Plant response rating, Pigweed [1, 18]: 0
Plant response rating, Pigweed [1, 24]: 0
Pigweed plant response rating ([1]; 125 g ai/ha): 0
Plant response rating, Pigweed [1, 19]: 0
Plant response rating, Foxtail, Giant [2, 18]: 0
Plant response rating, Foxtail, Giant [2, 24]: 0
Foxtail, Giant plant response rating ([2]; 125 g ai/ha): 0
Plant response rating, Foxtail, Giant [2, 19]: 0
Plant response rating, Wheat [3, 18]: 0
Plant response rating, Wheat [3, 24]: 0
Wheat plant response rating [3, 22]: 0
Plant response rating, Wheat [3, 19]: 0
Plant response rating, Barnyardgrass [7, 23]: 0
Plant response rating, Barnyardgrass ([7]; 250 g ai/ha, scale 0 to 100): 0
Plant response rating, Barnyardgrass ([7]; 500 g ai/ha, scale 0 to 100): 0
Plant response rating, Barnyardgrass ([7]; 1000 g ai/ha, scale 0 to 100): 0
Plant response rating, Corn [8, 18]: 0
Plant response rating, Corn [8, 24]: 0
Corn plant response rating [8, 22]: 0
Plant response rating, Corn [8, 19]: 0
Plant response rating, Rice [9, 23]: 0
Plant response rating, Rice ([9]; 250 g ai/ha, scale 0 to 100): 0
Plant response rating, Rice ([9]; 500 g ai/ha, scale 0 to 100): 0
Plant response rating, Rice ([9]; 1000 g ai/ha, scale 0 to 100): 0
Plant response rating, Morningglory [15, 18]: 0
Plant response rating, Morningglory [15, 24]: 0
Morningglory plant response rating [15, 22]: 0
Plant response rating, Morningglory [15, 19]: 0
Plant response rating, Barnyardgrass [10, 18]: 0
Plant response rating, Barnyardgrass [10, 24]: 0
Barnyardgrass plant response rating ([10]; 125 g ai/ha): 0
Plant response rating, Barnyardgrass [10, 25]: 0
Plant response rating, Crabgrass, Large [16, 18]: 0
Plant response rating, Crabgrass, Large [16, 24]: 0
Crabgrass, Large plant response rating [16, 22]: 0
Plant response rating, Crabgrass, Large [16, 19]: 0
Plant response rating, Velvetleaf [17, 18]: 0
Plant response rating, Velvetleaf [17, 24]: 0
Velvetleaf plant response rating [17, 22]: 0
Plant response rating, Velvetleaf [17, 19]: 0
Plant response rating, Ducksalad [13, 23]: 0
Plant response rating, Ducksalad ([13]; 250 g ai/ha, scale 0 to 100): 0
Plant response rating, Ducksalad ([13]; 500 g ai/ha, scale 0 to 100): 0
Plant response rating, Ducksalad ([13]; 1000 g ai/ha, scale 0 to 100): 0
Plant response rating, Sedge, Umbrella [14, 23]: 0
Plant response rating, Sedge, Umbrella ([14]; 250 g ai/ha, scale 0 to 100): 0
Plant response rating, Sedge, Umbrella ([14]; 500 g ai/ha, scale 0 to 100): 0
Plant response rating, Sedge, Umbrella ([14]; 1000 g ai/ha, scale 0 to 100): 0
